Assay results reported in patent US11459312B2, “Sulphur substituted 3-oxo-2,3-dihydropyridazine-4-carboxamides” (Bayer Aktiengesellschaft, priority 2017, dated 2022).

molecular target: T1, AHR (Homo sapiens, UniProt P35869); assay: In vitro assay 1: AHR-luc transactivation assay, antagonism in human cell line (U87 glioblastoma cells, kynurenic acid prestimulated); assay type: cell-based; set-up: U87 glioblastoma cells (ATCC) endogenously expressing AHR; host or cells: U87 glioblastoma cells, stably transfected with DRE-firefly luciferase and renilla reporter constructs only; conditions: firefly luciferase DRE reporter, 150 μM kynurenic acid, 20 hours, read-out: Assay 1: AHR-luc Hum Antagonism IC50
T1 sequence (P35869 11-848): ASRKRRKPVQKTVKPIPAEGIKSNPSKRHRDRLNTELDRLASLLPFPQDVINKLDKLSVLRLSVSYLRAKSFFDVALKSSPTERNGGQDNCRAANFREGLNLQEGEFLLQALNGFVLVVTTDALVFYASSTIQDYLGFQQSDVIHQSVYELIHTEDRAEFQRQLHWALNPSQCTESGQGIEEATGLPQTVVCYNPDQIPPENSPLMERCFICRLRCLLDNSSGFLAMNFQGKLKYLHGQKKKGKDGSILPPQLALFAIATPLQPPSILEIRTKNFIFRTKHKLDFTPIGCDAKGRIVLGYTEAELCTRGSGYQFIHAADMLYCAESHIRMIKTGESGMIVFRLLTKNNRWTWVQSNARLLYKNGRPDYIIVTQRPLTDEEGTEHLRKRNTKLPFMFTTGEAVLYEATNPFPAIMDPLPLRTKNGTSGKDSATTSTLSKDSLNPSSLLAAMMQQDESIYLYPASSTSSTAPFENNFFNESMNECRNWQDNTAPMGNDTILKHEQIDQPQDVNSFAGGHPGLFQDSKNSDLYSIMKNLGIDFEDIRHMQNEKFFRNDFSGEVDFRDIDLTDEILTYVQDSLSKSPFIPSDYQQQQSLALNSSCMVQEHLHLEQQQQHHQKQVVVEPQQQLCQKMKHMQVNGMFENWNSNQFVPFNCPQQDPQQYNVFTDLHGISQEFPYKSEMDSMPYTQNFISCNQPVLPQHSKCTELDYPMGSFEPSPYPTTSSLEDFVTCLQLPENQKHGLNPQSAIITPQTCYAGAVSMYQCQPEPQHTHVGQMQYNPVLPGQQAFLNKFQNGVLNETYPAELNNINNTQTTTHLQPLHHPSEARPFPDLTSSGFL
Method: Transactivation Assay in Human Cell Line (In Vitro Assays 1 and 2)
Transactivation assays were carried out in U87 glioblastoma cells (ATCC) endogenously expressing AHR. In addition the cells were stably transfected with an AHR inducible firefly luciferase reporter gene construct that carried AHR-binding sites (DRE) in its promoter and a renilla reporter gene construct with constitutively active promoter. Kynurenic acid is an endogenous AHR activating ligand and was used to prestimulate test cells prior to testing the antagonistic properties of compounds.
In Vitro Assay 1: Antagonism in Human Cell Line
Cells in medium (tryptophan free RPMI, 1% FCS, 2 mM Glutamine) supplemented with 150 μM kynurenic acid were grown for 20 hours in absence (negative control) or presence of increasing concentrations of test compounds (typical dilutions: […], 0.25 nmol/L, 0.89 nmol/L; 3.1 nmol/L, 11 nmol/L, 38 nmol/L, 130 nmol/L, 470 nmol/L, 1.6 μmol/L, 5.7 μmol/L and 20 μmol/L in duplicates). As positive inhibition control cells supplemented with 150 μM kynurenic acid were incubated in presence of 5 μM Staurosporin. Normalization was done by positive and negative controls.
Firefly luciferase and Renilla activity was determined by the DualGlo Luciferase Assay System (Promega, #2920). Renilla activity was used to assess toxic effects of compounds.

In order of falling IC50:
1. C[C@@H](CS(C)(=N)=O)NC(=O)c1cc(-c2ccc(Cl)cc2)nn(-c2cccc(F)c2)c1=O (single isomer, unassigned) [Example 7]  241 nM
2. C[C@@H](CS(C)(=N)=O)NC(=O)c1cc(-c2ccc(Cl)cc2)nn(-c2cccc(F)c2)c1=O (mixture of isomers) [Example 6, 6-(4-Chlorophenyl)-2-(3-fluorophenyl)-N-[(2S)-1-(S-methylsulfonimidoyl)propan-2-yl]-3-oxo-2,3-di hydropyridazine-4-carboxamide]  232 nM
3. O=C(N[C@@H]1CS(=O)(=O)C[C@@H]1O)c1cc(-c2ccc(C(F)(F)F)nc2)nn(-c2cccc(F)c2)c1=O (single isomer, unassigned) [Example 21, (−)-2-(3-fluorophenyl)-N-[(cis)-4-hydroxy-1,1-dioxidotetrahydro-thiophen-3-yl]-3-oxo-6-[6-(trifluoromethyl)pyridin-3-yl]-2,3-dihydropyridazine-4-carboxamide]  205 nM
4. C[C@@H](C[S+](C)[O-])NC(=O)c1cc(-c2ccc(Cl)cc2)nn(-c2cccc(F)c2)c1=O (single isomer, unassigned) [Example 5]  180 nM
5. C[C@@H](CS(C)(=N)=O)NC(=O)c1cc(-c2ccc(Cl)cc2)nn(-c2cccc(F)c2)c1=O (single isomer, unassigned) [Example 8]  140 nM
6. O=C(N[C@@H]1C[S+]([O-])C[C@@H]1O)c1cc(-c2ccc(C(F)(F)F)cc2)nn(-c2cccnc2)c1=O (relative stereo) [Example 33, N-[(cis)-4-hydroxy-1-oxidotetrahydro-thiophen-3-yl]-3-oxo-2-(pyridin-3-yl)-6-[4-(trifluoromethyl)phenyl]-2,3-dihydropyridazine-4-carboxamide]  139 nM
7. O=C(N[C@@H]1CS(=O)(=O)C[C@@H]1O)c1cc(-c2ccc(C(F)(F)F)nc2)nn(-c2cccc(F)c2)c1=O (relative stereo) [Example 19, 2-(3-fluorophenyl)-N-[(cis)-4-hydroxy-1,1-dioxidotetrahydro-thiophen-3-yl]-3-oxo-6-[6-(trifluoromethyl)pyridin-3-yl]-2,3-dihydropyridazine-4-carboxamide]  69.9 nM
8. C[C@@H](CS(C)(=N)=O)NC(=O)c1cc(-c2ccc(C(F)(F)F)cc2)nn(-c2cnn(C)c2)c1=O (mixture of isomers) [Example 38, 2-(1-Methyl-1H-pyrazol-4-yl)-N-[(2S)-1-(S-methylsulfonimidoyl)propan-2-yl]-3-oxo-6-[4-(trifluoromethyl)phenyl]-2,3-dihydropyridazine-4-carboxamide]  54.8 nM
9. O=C(N[C@@H]1CS(=O)(=O)C[C@@H]1O)c1cc(-c2ccc(C(F)(F)F)nc2)nn(-c2cccc(F)c2)c1=O (single isomer, unassigned) [Example 20, (+)-2-(3-fluorophenyl)-N-[(cis)-4-hydroxy-1,1-dioxidotetrahydro-thiophen-3-yl]-3-oxo-6-[6-(trifluoromethyl)pyridin-3-yl]-2,3-dihydropyridazine-4-carboxamide]  54.3 nM
10. C[C@@H](C[S+](C)[O-])NC(=O)c1cc(-c2ccc(Cl)cc2)nn(-c2cccc(F)c2)c1=O (mixture of isomers) [Example 3, 6-(4-Chlorophenyl)-2-(3-fluorophenyl)-N-[(2S)-1-(methylsulfinyl)propan-2-yl]-3-oxo-2,3-dihydropyridazine-4-carboxamide]  44.2 nM
11. Cn1cc(-n2nc(-c3ccc(C(F)(F)F)cc3)cc(C(=O)N[C@@H]3C[S+]([O-])C[C@@H]3O)c2=O)cn1 (relative stereo) [Example 32, N-[(cis)-4-hydroxy-1-oxidotetrahydro-thiophen-3-yl]-2-(1-methyl-1H-pyrazol-4-yl)-3-oxo-6-[4-(trifluoromethyl)phenyl]-2,3-dihydropyridazine-4-carboxamide]  41.6 nM
12. C[C@@H](C[S+](C)[O-])NC(=O)c1cc(-c2ccc(C(F)(F)F)cc2)nn(-c2cnn(C)c2)c1=O (single isomer, unassigned) [Example 25]  41.4 nM
13. C[C@@H](C[S+](C)[O-])NC(=O)c1cc(-c2ccc(Cl)cc2)nn(-c2cccc(F)c2)c1=O (single isomer, unassigned) [Example 4]  40.2 nM
14. O=C(N[C@@H]1CS(=O)(=O)C[C@@H]1O)c1cc(-c2ccc(C(F)(F)F)cc2)nn(-c2cccnc2)c1=O (single isomer, unassigned) [Example 18]  38.2 nM
15. O=C(N[C@@H]1C[S+]([O-])C[C@@H]1O)c1cc(-c2ccc(Cl)cc2)nn(-c2cccc(F)c2)c1=O (single isomer, unassigned) [Example 26, 6-(4-chlorophenyl)-2-(3-fluorophenyl)-N-[(cis)-4-hydroxy-1-oxidotetrahydro-thiophen-3-yl]-3-oxo-2,3-dihydropyridazine-4-carboxamide]  33.3 nM
16. O=C(N[C@@H]1CS(=O)(=O)C[C@@H]1O)c1cc(-c2ccc(C(F)(F)F)cc2)nn(-c2cccnc2)c1=O (relative stereo) [Example 16, N-[(cis)-4-hydroxy-1,1-dioxidotetrahydro-thiophen-3-yl]-3-oxo-2-(pyridin-3-yl)-6-[4-(trifluoromethyl)phenyl]-2,3-dihydropyridazine-4-carboxamide]  29.2 nM
17. O=C(N[C@@H]1CS(=O)(=O)C[C@@H]1O)c1cc(-c2ccc(C(F)(F)F)cc2)nn(-c2cccnc2)c1=O (single isomer, unassigned) [Example 17, (+)-N-[(cis)-4-hydroxy-1,1-dioxidotetrahydro-thiophen-3-yl]-3-oxo-2-(pyridin-3-yl)-6-[4-(trifluoromethyl)phenyl]-2,3-dihydropyridazine-4-carboxamide]  16.2 nM
18. O=C(N[C@@H]1CS(=O)(=O)C[C@@H]1O)c1cc(-c2ccc(C(F)(F)F)cc2)nn(-c2cccc(F)c2)c1=O (single isomer, unassigned) [Example 14, (+)-2-(3-fluorophenyl)-N-[(cis)-4-hydroxy-1,1-dioxidotetrahydro-thiophen-3-yl]-3-oxo-6-[4-(trifluoromethyl)phenyl]-2,3-dihydropyridazine-4-carboxamide]  6.45 nM
19. C[C@@H](C[S+](C)[O-])NC(=O)c1cc(-c2ccc(C(F)(F)F)cc2)nn(-c2cnn(C)c2)c1=O (mixture of isomers) [Example 23, 2-(1-Methyl-1H-pyrazol-4-yl)-N-[(2S)-1-(methylsulfinyl)propan-2-yl]-3-oxo-6-[4-(trifluoromethyl)phenyl]-2,3-dihydropyridazine-4-carboxamide]  5.37 nM
20. O=C(N[C@@H]1CS(=O)(=O)C[C@@H]1O)c1cc(-c2ccc(C(F)(F)F)cc2)nn(-c2cnsc2)c1=O (single isomer, unassigned) [Example 11, (−)-N-[(cis)-4-hydroxy-1,1-dioxidotetrahydro-thiophen-3-yl]-3-oxo-2-(1,2-thiazol-4-yl)-6-[4-(trifluoromethyl)phenyl]-2,3-dihydropyridazine-4-carboxamide]  3.46 nM
21. O=C(N[C@@H]1CS(=O)(=O)C[C@@H]1O)c1cc(-c2ccc(C(F)(F)F)cc2)nn(-c2cnsc2)c1=O (relative stereo) [Example 10, N-[(cis)-4-hydroxy-1,1-dioxidotetrahydro-thiophen-3-yl]-3-oxo-2-(1,2-thiazol-4-yl)-6-[4-(trifluoromethyl)phenyl]-2,3-dihydropyridazine-4-carboxamdie]  2.41 nM
22. O=C(N[C@@H]1CS(=O)(=O)C[C@@H]1O)c1cc(-c2ccc(C(F)(F)F)cc2)nn(-c2cnsc2)c1=O (single isomer, unassigned) [Example 12, (+)-N-[(cis)-4-hydroxy-1,1-dioxidotetra-hydrothiophen-3-yl]-3-oxo-2-(1,2-thiazol-4-yl)-6-[4-(trifluoromethyl)phenyl]-2,3-dihydropyridazine-4-carboxamide]  1.11 nM
